≈ marks a conversion by molar mass, not a printed value.
Experiments:
[1] = molecular target: T1, 5-LOX enzyme (human recombinant) (Homo sapiens, UniProt P09917); experiment: 5-Lipoxygenase inhibition assay; format: biochemical; conditions: at 100 µg/mL; mean ± SE, n = 3; read-out: 5-LOX Inhib. (%)
T1 construct: purchased Sigma-Aldrich 437996
T1 sequence (P09917 1-674): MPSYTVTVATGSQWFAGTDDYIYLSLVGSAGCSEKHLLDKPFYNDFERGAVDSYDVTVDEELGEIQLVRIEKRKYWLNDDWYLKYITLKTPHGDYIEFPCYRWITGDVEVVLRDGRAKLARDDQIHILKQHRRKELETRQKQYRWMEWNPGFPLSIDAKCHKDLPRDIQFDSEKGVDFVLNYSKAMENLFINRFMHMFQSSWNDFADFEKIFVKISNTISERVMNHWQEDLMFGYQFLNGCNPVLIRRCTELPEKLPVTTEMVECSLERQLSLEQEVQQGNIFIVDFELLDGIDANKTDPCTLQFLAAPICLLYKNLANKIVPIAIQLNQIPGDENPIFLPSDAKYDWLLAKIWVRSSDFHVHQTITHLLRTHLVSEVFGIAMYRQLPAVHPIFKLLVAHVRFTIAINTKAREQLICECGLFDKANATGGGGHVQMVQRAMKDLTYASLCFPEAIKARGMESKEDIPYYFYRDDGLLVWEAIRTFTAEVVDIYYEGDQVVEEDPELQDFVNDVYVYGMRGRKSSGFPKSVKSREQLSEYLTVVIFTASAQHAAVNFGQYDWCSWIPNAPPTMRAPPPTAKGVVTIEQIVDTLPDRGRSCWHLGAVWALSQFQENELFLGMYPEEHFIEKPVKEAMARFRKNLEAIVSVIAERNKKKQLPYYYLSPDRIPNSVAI

[2] = test system: caspase-3 in HepG-2 cells; experiment: Caspase-3 ELISA in treated HepG-2 cells; format: cell-based, human; conditions: HepG-2 cells treated at the IC50 value, mean ± SE, n = 3
Protocol: (§1) Following the treatment of HepG-2, Caco-2, A549, and BJ-1 cells with the SB-CuO-NPs at their respective IC50 values, as illustrated in Figure 9 and detailed in Table 5, an assessment of the activities of the caspase-3 and Bcl-2 enzymes was conducted in the treated cells. […] This mechanism ultimately triggers apoptosis. Additionally, the increased activity of caspase-3 results in a decrease in the expression of cyclin D1 and CDK-2 mRNA, thereby promoting the arrest of the G1 phase of the cell cycle. Othman et al. further noted that the biosynthesized M-NPs facilitate apoptosis by inhibiting the expression of the PI3K/AKT and Ras/Raf/ERK protein signaling pathways.
(§2) Invitrogen Corporation, following the manufacturer's instructions.

[3] = test system: Bcl-2 in HepG-2 cells; experiment: Bcl-2 ELISA in treated HepG-2 cells; format: cell-based, human; conditions: HepG-2 cells treated at the IC50 value, mean ± SE, n = 3
Protocol: as §1, §2

[4] = test system: caspase-3 in Caco-2 cells; experiment: Caspase-3 ELISA in treated Caco-2 cells; format: cell-based, human; conditions: Caco-2 cells treated at the IC50 value, mean ± SE, n = 3
Protocol: as §1, §2

[5] = test system: Bcl-2 in Caco-2 cells; experiment: Bcl-2 ELISA in treated Caco-2 cells; format: cell-based, human; conditions: Caco-2 cells treated at the IC50 value, mean ± SE, n = 3
Protocol: as §1, §2

[6] = test system: caspase-3 in A549 cells; experiment: Caspase-3 ELISA in treated A549 cells; format: cell-based, human; conditions: A549 cells treated at the IC50 value, mean ± SE, n = 3
Protocol: as §1, §2

[7] = test system: Bcl-2 in A549 cells; experiment: Bcl-2 ELISA in treated A549 cells; format: cell-based, human; conditions: A549 cells treated at the IC50 value, mean ± SE, n = 3
Protocol: as §1, §2

[8] = test system: caspase-3 in BJ-1 cells; experiment: Caspase-3 ELISA in treated BJ-1 cells; format: cell-based, human; conditions: BJ-1 cells treated at the IC50 value, mean ± SE, n = 3
Protocol: as §1, §2

[9] = test system: Bcl-2 in BJ-1 cells; experiment: Bcl-2 ELISA in treated BJ-1 cells; format: cell-based, human; conditions: BJ-1 cells treated at the IC50 value, mean ± SE, n = 3
Protocol: as §1, §2

[10] = test system: human lung cancer (A549) cell line; experiment: MTT cytotoxicity, A549
[11] = MTT cytotoxicity, BJ-1; conditions: human, BJ-1 normal fibroblast cells
[12] = test system: normal human fibroblast (BJ-1) cell line; experiment: MTT cytotoxicity, BJ-1; conditions: Homo sapiens, Fibroblast, 48 h, read-out: Median Inhibitory Concentration (IC50) BJ-1
[13] = test system: human hepatocellular carcinoma (HepG-2) cell line; experiment: MTT cytotoxicity, HepG-2
[14] = test system: human colon cancer (Caco-2) cell line; experiment: MTT cytotoxicity, Caco-2
[15] = Total antioxidant capacity (TAC), phosphomolybdenum method; conditions: samples at 100 µg/mL; mean ± SE, n = 3
Protocol: 1. Preparation of SB-CuO-NPs
The copper oxide nanoparticles (CuO-NPs) were biosynthesized using a concentrated anhydrous copper sulfate solution (1 mM) as a metal precursor based […]
dissolved in 100 ml of deionized water to form a 0.1 M concentration. The Schiff base (SB) was mixed with the metal solution in a ratio of 4:1. The SB-CuO-NPs was monitored by a color change. They were dried at 80 °C after centrifuging the colloidal solution at 4000 rpm for 15 min.
2. Characterization of the SB-CuO-NPs
The spectra of the SB-CuO-NPs were characterized using a Shimadzu UV-VIS recording spectrophotometer UV-240 after diluting the samples (10-fold) with deionized water at λ 200 - 800 nm. Their surface zeta potentials were measured using the laser zeta meter (Malvern Zetasizer 2000, Malvern, Worcestershire, UK) following […]
Moreover, their average hydrodynamic sizes were determined using the laser diffraction method with multiple scattering techniques employing dynamic light scattering (DLS) (Malvern Zetasizer Nano ZS, Malvern Instruments Ltd., Malvern, United Kingdom) (Murdock et al., 2008). […]
All biological activities were assessed in the prepared samples at equal concentrations (100 µg/mL). […]
After cooling to room temperature, the absorbance was measured at 695 nm against the blank. […] The antioxidant capacity was expressed as mg gallic acid equivalent per gram weight. […]

[16] = Iron reducing power (IRP); conditions: samples at 100 µg/mL; mean ± SE, n = 3
Protocol: ammonium molybdate. Methanol (80%) was used in place of the sample for the blank. The tubes were sealed and incubated in a boiling water bath for 90 minutes.
After cooling to room temperature, the absorbance was measured at 695 nm against the blank. […] was used at the same concentrations as a standard. The antioxidant capacity was expressed as mg gallic acid equivalent per gram weight.
The iron reducing power was determined as µg/mL using the method proposed by Oyaizu (1986). In brief, 1ml of the tested sample (at each concentration) was combined with 1mL of 200mM sodium phosphate buffer (pH 6.6) and 1mL of 1% potassium ferricyanide. […] The absorbance was measured at 700nm against a blank prepared without the sample. […] A high absorbance at 700nm indicates a higher reducing power in the reaction mixture.
(§3) The 1,1-Diphenyl-2-picryl-hydrazyl (DPPH) radical scavenging activities were evaluated using the method described by Rahman et al. An antioxidant substance capable of donating a hydrogen atom to a solution containing DPPH- can reduce the stable free radical, causing the solution to change color from violet to pale yellow.
The remaining DPPH- radical was quantified by measuring the intensity of a light-purple colored DPPH methanol solution in the visible range at 518 nm using a spectroscopic method. […]

[17] = DPPH radical scavenging; conditions: mean ± SE, n = 3
Protocol: as §3
The remaining DPPH- radical was quantified by measuring the intensity of a light-purple colored DPPH methanol solution in the visible range at 518 nm using a spectroscopic method. Two mill iliters of a DPPH solution (100 µ M) in ethanol were mixed with 2 mL of the sample (at each concentration). The reaction mixture for each concentration was thoroughly vortexed and then incubated in the dark at room temperature for 30 minutes. The absorbance was then measured spectrophotometrically at 518 nm against a blank (ethanol). For the control, 2 mL of ethanol was added instead of the sample and run simultaneously with the test.
Ascorbic acid was used at the same concentrations as a positive control. P ercent […]
inhibition of the DPPH free radical was calculated. […]

[18] = ABTS radical scavenging; conditions: mean ± SE, n = 3
Protocol: The procedure for the 2,2'-azinobis-(3-ethylbenzothiazoline-6-sulfonic acid) (ABTS) […]
solution (7 mM) and potassium persulfate solution (2.4 mM). The working solution was prepared by mixing the two stock solutions in equal quantities and allowing them to react at room temperature in a dark place for 14 hours. The solution was then diluted by mixing 1 mL of ABTS solution with 60 mL of methanol to obtain an absorbance of 0.706 ± 0.01 units at 734 nm using a spectrophotometer. Fresh ABTS solution was prepared for each assay. The tested samples (at each concentration) were allowed to react with 1 mL of the ABTS solution, and the absorbance was taken at 734 nm after 7 minutes using a spectrophotometer. […]

[19] = NO radical scavenging; conditions: mean ± SE, n = 3
Protocol: The in vitro biological applications of the SB and SB-CuO-NPs, including antioxidant, scavenging, anti-diabetic, anti-Alzheimer, anti-arthritic, anti-inflammatory, cytotoxic effects, and enzyme inhibition, were assessed using methods described in the literature (See Supplementary Materials).
During the current study, the free radical scavenging capacity of SB-CuO-NPs, SB, and ascorbic acid (positive control) was evaluated using the DPPH, ABTS, and NO radical methods. The scavenging activity is used to predict antioxidant efficacy, a mechanism in which antioxidants inhibit lipid oxidation. The lower IC50 value indicates a stronger ability of the SB-CuO-NPs to act as radical scavengers, whereas the higher IC50 value indicates a lower scavenging activity. […] The lower the IC50 value, the greater the antioxidant activity.

CC(c1cc2ccccc2s1)N(O)C(N)=O (centres unmarked) [Zileuton, reference compound]
inhibition at 100 µg/mL [1]: 46.99 ± 0.13%

COc1cccc2c1C(=O)c1c(O)c3c(c(O)c1C2=O)C[C@@](O)(C(=O)CO)C[C@@H]3O[C@H]1C[C@H](N)[C@H](O)[C@H](C)O1 [Doxorubicin, reference compound]
Caspase-3 [2]: 306.04 ± 1.23 pg/mL
Bcl-2 [3]: 4.00 ± 0.02 ng/mL
Caspase-3 [4]: 265.13 ± 0.12 pg/mL
Bcl-2 [5]: 2.04 ± 0.01 ng/mL
Caspase-3 [6]: 247.96 ± 0.08 pg/mL
Bcl-2 [7]: 4.51 ± 0.01 ng/mL
Caspase-3 [8]: 200.43 ± 0.08 pg/mL
Bcl-2 [9]: 2.72 ± 0.01 ng/mL
viability at 6.25 µg/mL ([10]; A549): 77.4%
viability at 12.5 µg/mL ([10]; A549): 51%
viability at 25 µg/mL ([10]; A549): 24.3%
viability at 50 µg/mL ([10]; A549): 12.1%
viability at 100 µg/mL ([10]; A549): 5.17%
IC50 ([10]; A549, 48 h, read-out: Median Inhibitory Concentration (IC50) A549): 14.4 ± 1.12 µg/mL (≈ 26.4 µM)
viability at 48 h, 6.25 μg/mL [11]: 87.4%
viability at 48 h, 12.5 μg/mL [11]: 68%
viability at 48 h, 25 μg/mL [11]: 42.3%
viability at 48 h, 50 μg/mL [11]: 20.1%
viability at 48 h, 100 μg/mL [11]: 13.2%
IC50 [12]: 22 ± 1.51 µg/mL (≈ 40.5 µM)
viability at 6.25 µg/mL ([13]; HepG2): 74.4%
viability at 12.5 µg/mL ([13]; HepG2): 59%
viability at 25 µg/mL ([13]; HepG2): 34.3%
viability at 50 µg/mL ([13]; HepG2): 18.1%
viability at 100 µg/mL ([13]; HepG2): 9.17%
IC50 ([13]; HepG2, 48 h, read-out: Median Inhibitory Concentration (IC50) HepG-2): 15.5 ± 1.98 µg/mL (≈ 28.5 µM)
viability at 6.25 µg/mL ([14]; Caco-2): 70.2%
viability at 12.5 µg/mL ([14]; Caco-2): 35.2%
viability at 25 µg/mL ([14]; Caco-2): 5.64%
viability at 50 µg/mL ([14]; Caco-2): 4.48%
viability at 100 µg/mL ([14]; Caco-2): 1.3%
IC50 ([14]; Caco-2, 48 h, read-out: Median Inhibitory Concentration (IC50) Caco-2): 11.1 ± 1.09 µg/mL (≈ 20.5 µM)

O=C1O[C@H]([C@@H](O)CO)C(O)=C1O [Ascorbic Acid, reference compound]
Antioxidant activity TAC [15]: 83.75 ± 0.13 mg gallic acid/g
Antioxidant activity IRP [16]: 66.00 ± 0.13 µg/mL
Scavenging activity DPPH Inhib. (%) ([17]; at 100 µg/mL): 61.68 ± 0.12%
Scavenging activity DPPH IC50 [17]: 4.50 ± 0.03 µg/mL
Scavenging activity ABTS Inhib. (%) ([18]; at 100 µg/mL): 65.43 ± 0.12%
Scavenging activity ABTS IC50 [18]: 3.99 ± 0.04 µg/mL
Scavenging activity NO Inhib. (%) ([19]; at 100 µg/mL): 53.93 ± 0.12%
Scavenging activity NO IC50 [19]: 5.24 ± 0.02 µg/mL

From PMC11859031, “Assessment of the In Vitro Biological Activities of Schiff Base-Synthesized Copper Oxide Nanoparticles as an Anti-Diabetic, Anti-Alzheimer, and Anti-Cancer Agent” (Pharmaceutics, 2025)
